Tests used:
Assay type in all cases: in vivo
Myzus persicae = Myzus persicae - Test (sprayed cabbage leaves); details: single compound; for mortality at 500 g/ha / Mortality in % after 6d: 500 g/ha
Procedure: (§1) Solvent: 78 parts by weight of acetone • • 1.5 parts by weight of dimethylformamide Emulsifier: 0.5 parts by weight of alkylaryl polyglycole-ether
(§2) To produce a suitable preparation of active compound, 1 part by weight of active compound is mixed with the stated amount of solvent and emulsifier, and the concentrate is diluted with emulsifier-containing water to the desired concentration.
Cabbage leaves (Brassica oleracea) which are heavily infested by the green peach aphid (Myzus persicae) are treated by being sprayed with the preparation of the active compound at the desired concentration. After the specified period of time, the mortality in % is determined 100% means that all the aphids have been killed; 0% means that none of the aphids have been killed.

Phaedon cochleariae = Phaedon cochleariae Larven - Test (sprayed cabbage leaves); details: 144 h, single compound, 6 d, read-out: Mortality in % after 6d
Procedure: as §1, §2
Cabbage leaves (Brassica oleracea) are treated by being sprayed with the preparation of the active compound at the desired concentration and are infested with larvae of the mustard beetle (Phaedon cochleariae) as long as the leaves are still moist.
After the specified period of time, the mortality in % is determined 100% means that all the beetle larvae have been killed; 0% means that none of the beetle larvae have been killed.

Tetranychus urticae = Tetranychus urticae - Test (OP-resistant, bean plants); details: 144 h, single compound, 6 d, read-out: Mortality in % after 6d
Procedure: as §1, §2
Bean plants (Phaseolus vulgaris) which are heavily infested with all stages of the two-spotted spider mite (Tetranychus urticae) are treated by being sprayed with the preparation of the active compound at the desired concentration.
After the specified period of time, mortality in % is determined 100% means that all the spider mites have been killed; 0% means that none of the spider mites have been killed.

Spodoptera frugiperda = Spodoptera frugiperda - Test (sprayed cabbage leaves); details: 500 g/ha, single compound
Procedure: as §1, §2
Cabbage leaves (Brassica oleracea) are treated by being sprayed with the preparation of the active compound at the desired concentration and are infested with larvae of the fall army worm (Spodoptera frugiperda) as long as the leaves are still moist.
After the specified period of time, the mortality in % is determined 100% means that all the caterpillars have been killed; 0% means that none of the caterpillars have been killed.

[1] = Myzus persicae, 144 h, 6 d, read-out: Mortality in % after 6d

Structure (SMILES): COC(=O)C(C)N(C(=O)Cc1ccccc1)c1c(C)cccc1C (stereo not shown) [Benalaxyl]
- mortality at 500 g/ha (Myzus persicae; [1]): 0%

Structure (SMILES): COCC(=O)N(c1c(C)cccc1C)C(C)C(=O)OC (stereo not shown) [Metalaxyl]
- mortality at 500 g/ha (Phaedon cochleariae; 500 g/ha): 0%

Structure (SMILES): O=C(NCc1ncc(C(F)(F)F)cc1Cl)c1c(Cl)cccc1Cl [Fluopicolide]
- Mortality in % after 6d (Myzus persicae): 0%

Structure (SMILES): CC1(C)[C@H](C=C(Cl)Cl)[C@H]1C(=O)OCc1c(F)c(F)cc(F)c1F [Transfluthrin]
- mortality at 20 g/ha (Myzus persicae; Myzus persicae, 144 h, 20 g/ha, 6 d, read-out: Mortality in % after 6d): 0%
- mortality at 20 g/ha (Phaedon cochleariae; 20 g/ha): 50%
- mortality at 100 g/ha (Tetranychus urticae; 100 g/ha): 0%

Structure (SMILES): CCCN(CCOc1c(Cl)cc(Cl)cc1Cl)C(=O)n1ccnc1 [Prochloraz]
- mortality at 500 g/ha (Myzus persicae; [1]): 0%

Structure (SMILES): CC1(C(=O)Nc2ccc(O)c(Cl)c2Cl)CCCCC1 [Fenhexamid]
- mortality at 500 g/ha (Myzus persicae; [1]): 0%
- mortality at 500 g/ha (Tetranychus urticae): 0%

Structure (SMILES): CN(C)C(=S)SSC(=S)N(C)C [Thiram]
- mortality at 500 g/ha (Myzus persicae; [1]): 0%

Structure (SMILES): Cc1ccc(N(SC(F)(Cl)Cl)S(=O)(=O)N(C)C)cc1 [Tolyfluanid]
- mortality at 500 g/ha (Tetranychus urticae): 0%

Structure (SMILES): CCO[PH](=O)O [Fosetyl AL]
- Mortality in % after 6d (Myzus persicae): 0%

Structure (SMILES): N#Cc1ccccc1NC(=O)c1snc(Cl)c1Cl [Isotianil]
- Mortality in % after 6d (Spodoptera frugiperda): 0%

Source: patent US20110152079A1, “Pesticidal Compound Mixtures” (BAYER CROPSCIENCE AG, priority 2009, published 2011)
